Data from patent US7649013B2, “Methods of protecting against radiation injury” (priority 2003, dated 2010).
Entries after “also recorded” stand apart in the source; their conditions may differ.

Assays:
[1] = tested on: E2F1 in human colon cancer cells (SW480); experiment: E2F1 level in whole cell extracts, SDS/PAGE and enhanced chemiluminescence, colon cancer cells; format: cell-based; conditions: SW480, 2 μM, 20 minute to 4 hour exposures
Description: Human colon cancer cells (SW480) and normal colon cells (NCM460) are treated with β-lapachone at a concentration of 2 μM and are harvested after 20 minute, 1 hour, 2 hour, or 4 hour exposures. Whole cell extracts are prepared and resolved by SDS/PAGE. An enhanced chemiluminescence assay system (Amersham Pharmacia) is used to determine the E2F1 level. Monoclonal antibody against […] is obtained from Santa Cruz Biotechnology (Santa Cruz, Calif.). […] Elevation of E2F1 following exposure to β-lapachone persists through cell death in cancer cells.

[2] = tested on: C57BL/6J inbred strain female mice; experiment: Thymic cellularity after whole body irradiation, hematoxylin-eosin sections (Example 7a); format: in vivo; conditions: 40 mg/kg i.p. 0.5 hour before 8 Gy; day five
Description: β-lapachone is prepared at 10 mg/ml in 40% hydroxypropyl-beta-cyclodextrin (HPBCD). C57BL/6J inbred strain female mice (4-5 weeks old) are organized into three groups of six mice each: Group I mice receive no radiation, no β-lapachone, and no carrier; Group II mice receive radiation and are injected with carrier (40% HPBCD 4 ml/kg body weight); and Group III mice are injected intraperitoneally at 0.5 hour before irradiation with β-lapachone (40 mg/kg body weight). Whole body irradiation of animals with 8 Gy of γ-rays is carried out in air at room temperature in a gamma chamber (Gammacell 40 Exactor), with a dose-rate of 1.05 Gy/min. This radiation dose is within the range of equivalent human exposures predicted in many scenarios of radiologic or nuclear terrorist attack. Following irradiation, animals are maintained in a climate-controlled animal facility. Three mice in each of Groups I, II, and III are sacrificed on day five following irradiation, and an analysis of thymic cellularity is performed for each. The remaining mice are sacrificed on day eight following irradiation, and an analysis of thymic cellularity is performed for each. Thymic cellularity is qualitatively assessed in sections stained with hematoxylin-eosin following standard procedures.

CC1(C)CCC2=C(O1)c1ccccc1C(=O)C2=O [β-lapachone, 3,4-dihydro-2,2-dimethyl-2H-naphtho[1,2-b]pyran-5,6-dione] was tested, and the E2F1 level [1] was “Elevation of E2F1 is seen in tumor cells; also recorded: induces increased expression of E2F1” and the “Thymic cellularity in thymic sections (FIG. 8)” value [2] was “preserves thymic cellularity”.
